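Interpolation was linear, between the two tested concentrations surrounding the appropriate level; five concentrations were tested over 48 hours in 96-well plates. Here, GI50 denotes the concentration required for 50% inhibition of growth. Definition used: TGI = concentration required for complete inhibition of growth.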
Assays:
Experiment in all cases: NCI anticancer screen, dose series, 48 h
[1] = test system: KM12 colon
[2] = test system: UACC-257 melanoma
[3] = test system: OVCAR-4 ovarian
[4] = test system: HCT-116 colon
[5] = test system: IGROV1 ovarian
[6] = test system: MDA-MB-231 breast
[7] = test system: A549 NSCLC
[8] = test system: HL-60(TB) leukemia
[9] = test system: SF-295 CNS
[10] = test system: BT-549 breast
[11] = test system: HS 578T breast
[12] = test system: UACC-62 melanoma
[13] = test system: OVCAR-5 ovarian
[14] = test system: CCRF-CEM leukemia
[15] = test system: COLO 205 colon
[16] = test system: OVCAR-8 ovarian
[17] = test system: HCT-15 colon
[18] = test system: PC-3 prostate
[19] = test system: NCI/ADR-RES ovarian
[20] = test system: MCF7 breast
[21] = test system: MALME-3M melanoma
[22] = test system: K-562 leukemia
[23] = test system: SNB-75 CNS
[24] = test system: LOX IMVI melanoma
[25] = test system: SK-MEL-5 melanoma
[26] = test system: RXF 393 renal
[27] = test system: EKVX NSCLC
[28] = test system: SK-MEL-28 melanoma
[29] = test system: SF-539 CNS

In the case of `COCc1cc(C(=O)Nc2cc([C@H]3CC[C@@H](OC(=O)NC(C)C)C3)[nH]n2)n(C)n1`, the GI50 [1] is reported as 1.27 µM, the TGI [1] is reported as 23.1 µM and the GI50 [2] is reported as 25.9 µM. For the same compound, the TGI [2] was > 100 µM, the GI50 [3] was 4.89 µM and the TGI [3] was 77.2 µM. For the same compound, the GI50 [4] was 2.61 µM, the TGI [4] was 43 µM and the GI50 [5] was 4.74 µM. For the same compound, the TGI [5] was > 100 µM, the GI50 [6] was 16.6 µM and the TGI [6] was 91.1 µM. The GI50 [7] was 13 µM, the TGI [7] was > 100 µM and the GI50 [8] was 2.55 µM. The TGI [8] was 11.4 µM, the GI50 [9] was 13 µM and the TGI [9] was > 100 µM. The GI50 [10] was 9.27 µM, the TGI [10] was 41.1 µM and the GI50 [11] was 11.7 µM. For the same compound, the TGI [11] was 85.3 µM, the GI50 [12] was 11.5 µM and the TGI [12] was 36.4 µM. For the same compound, the GI50 [13] was 7.99 µM, the TGI [13] was > 100 µM and the GI50 [14] was 4.78 µM. The TGI [14] was 70.2 µM, the GI50 [15] was 3.15 µM and the TGI [15] was 16.3 µM. The GI50 [16] was 10.9 µM, the TGI [16] was > 100 µM and the GI50 [17] was 22.8 µM. For the same compound, the TGI [17] was > 100 µM, the GI50 [18] was 10.3 µM and the TGI [18] was 73.6 µM. For the same compound, the GI50 [19] was > 100 µM, the TGI [19] was > 100 µM and the GI50 [20] was 2.53 µM. For the same compound, the TGI [20] was > 100 µM, the GI50 [21] was 24.2 µM and the TGI [21] was 74.1 µM. The GI50 [22] was 12.1 µM, the TGI [22] was > 100 µM and the GI50 [23] was 3.86 µM. For the same compound, the TGI [23] was 22.4 µM, the GI50 [24] was 4.15 µM and the TGI [24] was 75.5 µM. It also gave a GI50 [25] of 15.6 µM, a TGI [25] of 39.3 µM and a GI50 [26] of 2.93 µM. It also gave a TGI [26] of 9.11 µM, a GI50 [27] of 19.1 µM and a TGI [27] of 85.8 µM. It also gave a GI50 [28] of 14.9 µM, a TGI [28] of 85 µM and a GI50 [29] of 6.34 µM.

Reference: PubChem BioAssay (NCI)
